Molecular target: T1, XynSPP2 (Labilibaculum antarcticum, UniProt A0A1Y1CHM8)
T1 construct: gene ALGA_1465; residues 25-450, signal peptide (24 residues) removed, Fn3 + GH10 domains; 34-residue N-terminal pET-28a tag kept; E. coli BL21(DE3)
Experiment: TLC of hydrolysis products
Format: biochemical
Conditions: 20 uM substrate, citrate-phosphate pH 6.5

T1 sequence (A0A1Y1CHM8 entry or part of it): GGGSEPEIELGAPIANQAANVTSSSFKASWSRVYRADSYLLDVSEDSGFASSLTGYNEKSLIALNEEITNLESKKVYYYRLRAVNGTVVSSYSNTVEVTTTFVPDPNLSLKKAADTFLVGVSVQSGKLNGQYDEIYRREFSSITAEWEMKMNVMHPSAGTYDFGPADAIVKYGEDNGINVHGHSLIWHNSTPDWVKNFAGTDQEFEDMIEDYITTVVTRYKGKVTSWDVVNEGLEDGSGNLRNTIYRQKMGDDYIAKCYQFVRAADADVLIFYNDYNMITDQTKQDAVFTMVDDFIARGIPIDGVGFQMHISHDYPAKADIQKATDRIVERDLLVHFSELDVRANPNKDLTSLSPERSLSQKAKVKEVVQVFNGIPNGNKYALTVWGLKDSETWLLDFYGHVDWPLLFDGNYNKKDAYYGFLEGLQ

OC1OC[C@@H](O[C@@H]2OC[C@@H](O[C@@H]3OC[C@@H](O[C@@H]4OC[C@@H](O)[C@H](O)[C@H]4O)[C@H](O)[C@H]3O)[C@H](O)[C@H]2O)[C@H](O)[C@H]1O (some centres unmarked) [X4, xylotetraose]
TLC of hydrolysis products: XynSPP2 hydrolyzed xylotetraose to xylotriose (major) and xylobiose

OC1OC[C@@H](O[C@@H]2OC[C@@H](O[C@@H]3OC[C@@H](O[C@@H]4OC[C@@H](O[C@@H]5OC[C@@H](O)[C@H](O)[C@H]5O)[C@H](O)[C@H]4O)[C@H](O)[C@H]3O)[C@H](O)[C@H]2O)[C@H](O)[C@H]1O (some centres unmarked) [X5, xylopentaose]
TLC of hydrolysis products: Degradations of xylopentaose and xylohexaose by XynSPP2 were largely similar

From publication PMC6614494, “Molecular and Biochemical Characterization of a Bimodular Xylanase From Marinifilaceae Bacterium Strain SPP2” (Frontiers in Microbiology, 2019)
